One test has as its system AMPK. As to the kind of experiment: AMPK activation (pT172-AMPK immunoassay) in C2C12 myocytes. Conditions: 1 mM AICAR, 30 min, average over ten independent assays, 95% CI=1.26-2.21. In kind it is cell-based, mouse. Here is the method: The Model—The C2C12 myocyte model is commonly used to study the potential effects of compounds on muscle tissue in vitro.
Cell culture—Mouse C2C12 myoblasts were obtained from American Type Culture Collection (Manassas, Va.), and were maintained in Dulbecco's modified Eagle's medium (DMEM) supplemented with 10% fetal bovine serum at 37° C. under a humidified atmosphere of 5% CO2.
C2C12 cells were seeded at an initial density of 6×10^4 cells/cm^2 in 24-well plates. For two days, the cells were allowed grow to reach confluence. Following confluence, the cells were forced to differentiate into myocytes by culturing in DMEM supplemented with 2% horse serum for seven days.
Treatment with AICAR—On Day 8 to 10 post differentiation, C2C12 myocytes were incubated in serum-free DMEM plus 0.5% BSA (bovine serum albumin) for three hours. Next, AICAR (Cell Signal, Danvers, Mass.) was dissolved in phosphate buffered saline (PBS) and added to the culture medium to achieve concentrations of 1 mM per column (4 replicates) for 30 min at 37° C.
Measuring activated AMPKα—pT^172-AMPK was quantified using the Biosource AMPKa Immunoassay Kit (Camarillo, Calif.) without modification. Protein content of the cell lysates was determined with the Active Motif fluorescent protein assay reagent (Carlsbad Calif., Hoefelschweiger, B. K., Duerkop, A., and Wolfbeis, O, S, Novel type of general protein assay using a chromogenic and fluorogenic amine-reactive probe. Anal Biochem 2005, 344, 122-9). A Packard Fluorocount spectrofluorometer (Model#BF10000, Meridan, Conn.) was used for protein determination and a MEL312e BIO-KINETICS READER (Bio-Tek Instruments, Winooski, Vt.) was used for quantification of pT^172-AMPK.
Calculation of relative activation of AMPK —pT^172-AMPK was computed per mg lysate protein and then normalized to the dimethyl sulfoxide (DMSO) negative controls. For statistical comparisons, 95% confidence intervals were computed (Excel, Microsoft, Redman, Wash.).
The Model—The C2C12 murine myocyte model as described in Example 1 was used.
Chemicals, Cell Culture and Treatment—Chemicals, cell culture procedures, methods and statistical procedures used were as noted in Example 1.
Test Materials—Phytochemicals or botanical extracts as described in Table 1 were used as the test materials and dosed at 25 μglmL. The concentration for the positive control AICAR run concurrently was 1.0 mM (338 μg/mL).
The Model—The C2C12 murine myocyte model as described in Example 1 was used in this example.
Test Materials—Botanical extracts Ginger Extract (Suan Farma, Hackensack, N.J.), Ginger Root Powder (BI Nutraceuticals, Long Beach, Calif.), and Ginger Powdered Extract 6:1, Zingiber officinale (Draco, San Jose, Calif.) were used as the test materials and dosed at 25 μg/mL. The concentration for the positive control AICAR was 1.0 mM (338 μg/mL).
On to `NC(=O)c1ncn([C@@H]2O[C@H](CO)[C@@H](O)[C@H]2O)c1N` [AICAR, 5-Aminoimidazole-4-carboxamide ribonucleoside, reference compound], for which the “increase of pT172-AMPK relative to the DMSO negative controls” value turned out to be 1.67 fold.

The same test, now with this note: test material 25 μg/mL, pT172-AMPK per mg lysate protein normalized to DMSO negative controls.
In turn, `CCCCC[C@H](O)CC(=O)CCc1ccc(O)c(OC)c1` [6-Gingerol] displayed a pAMPK/AMPK. of 3.52.
Still for that read-out and setting: the value for `COc1ccc2cc3[n+](cc2c1OC)CCc1cc2c(cc1-3)OCO2` [Berberine] was 1.26; that for `CC(C)C[C@H](N)C(=O)O` [L-Leucine] was 1.29.
Still for that read-out and setting: the same measure for `CC(C)=CCC1=C(O)C(C(=O)CC(C)C)=C(O)C(CC=C(C)C)(CC=C(C)C)C1=O` [Lupulone]: 1.63.
In turn, `Oc1ccc(C=Cc2cc(O)cc(O)c2)cc1` [Resveratrol] gave a pAMPK/AMPK. of 1.25.
The same measure, in the same setting: the same measure for `CNCC(O)c1ccc(O)cc1` (stereo not drawn) [Synephrine]: 2.64.
The same measure, in the same setting: the value for `COc1cc(O)c(CC=C(C)C)c(O)c1C(=O)/C=C/c1ccc(O)cc1` [Xanthohumol] was 1.55; that for Chromium polynicotinate was 1.59.

These data come from patent US20100112099A1, “PHYTOCHEMICAL COMPOSITIONS AND METHODS FOR ACTIVATING AMP-KINASE” (METAPROTEOMICS, LLC, priority 2008, published 2010).
